In patent US4226610A, “Herbicidal compounds, preparation thereof and herbicides containing the same” (Meiji Selka Kaisha, Ltd., priority 1978, dated 1980):
Structures can show the parent of a compound that is named as a salt.

What was measured:
torch azalea = assay: Experiment 3 foliar application to naturally growing shrubs; format: in vivo, Rhododendoron Kaempferi Planch.; settings: after 3 months; note: key: -: no reproduction, namely complete suppression of reproduction; ±: remarkable suppression of reproduction; +: considerable suppression of reproduction; ++: medium supprestion of reproduction; +++: no suppression of reproduction
In short: (§1)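 Compounds, diluted to prescribed concentrations with 0.1% octylphenyl polyoxyethanol as surfactant, were sprayed onto the foliage of naturally growing shrubs at 150 liter per 10 are. Kill was scored on a 0 (no effect) to 5 (death) index at 1 and 3 months. Regrowth was graded from − (no reproduction) to +++ (maximum) at 3 months.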

oak = assay: as above; format: in vivo, Quercus serrata Thunb; settings: after 3 months; note: key: -: no reproduction, namely complete suppression of reproduction; ±: remarkable suppression of reproduction; +: considerable suppression of reproduction; ++: medium supprestion of reproduction; +++: no suppression of reproduction
In short: as §1

water hyacinth = assay: Experiment 5 foliar application to water hyacinths; format: in vivo, Eichhornia crassipes Solms; settings: 3 months, listed as DL-AMPB monosodium salt, monosodium salt; note: key: -: no reproduction, namely complete suppression of reproduction; ±: remarkable suppression of reproduction; +: considerable suppression of reproduction; ++: medium supprestion of reproduction; +++: no suppression of reproduction
In short: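 Two plants floated in fertilized water per vessel, sprayed foliarly with 0.1 or 0.2% aqueous compound solutions at 100 liter per 10 are plus 0.1% octylphenyl polyoxyethanol. Killing index (0 no effect to 5 death) scored at 21 days and 3 months; reproduction inhibition scored (-) to (+++) at 3 months.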

yamazakura = assay: Experiment 3 foliar application to naturally growing shrubs; note: key: -: no reproduction, namely complete suppression of reproduction; ±: remarkable suppression of reproduction; +: considerable suppression of reproduction; ++: medium supprestion of reproduction; +++: no suppression of reproduction; format: in vivo, Prunus donarium Sieb. var. spontanae Makino; settings: after 3 months
In short: as §1

eulalia = assay: Experiment 2 foliar application in Japanese cypress afforested land; format: in vivo, Miscanthus sinensis Andress.; design: key: 0 = no effect, 5 = death; settings: 0.125%; after 30 days; monosodium salt
Procedure: (§2) The detail of the assessment made in the following Experiments of the invention was as follows:
(§3) The compounds of the invention and other compounds listed in Table 4. were diluted to prescribed concentrations and sprayed to shrubs by foliar application in a Japanese cypress afforested land in an amount of 150 liter per 10 are.
(§4) After 30 days and 3 months, the killing index (0, no effect; 5, death) was determined.
(§5) The heights of plants were 50-70 cm. for Japanese cypress, about 50 cm. for chestnut, 50-90 cm. for miyakozasa, about 100 cm. for eulalia and 70-100 cm. for kumaichigo, respectively.

manna grass = assay: Experiment 1 foliar application to naturally growing weeds; format: in vivo, Digitaria adsceudes Henr.; settings: monosodium salt; for Reproduction-inhibiting effect: 2 months
In short: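 Dilute compounds to prescribed concentrations; add 0.1% octylphenyl polyoxyethanol; spray foliage of in-situ weeds at 150 liter per 10 are. Score killing 0–5 on day 21. Score reproduction (-) to (+++) at month 2 (cockspar grass) or month 4 (chigaya, azumanezasa, warunasubi).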

Japanese prickly ash = assay: Experiment 3 foliar application to naturally growing shrubs; format: in vivo, Xanthoxylum piperitum DC.; settings: after 3 months
In short: as §1

white clover = assay: Experiment 1 foliar application to naturally growing weeds; format: in vivo, Trifolium repens L.; settings: monosodium salt; for Reproduction-inhibiting effect: 4 months
In short: (§6)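 Test compounds, diluted to prescribed concentrations with 0.1% octylphenyl polyoxyethanol surfactant, were sprayed onto foliage of naturally growing weeds at 150 liter per 10 are. Killing index (0, no effect; 5, death) was scored at 21 days. Reproduction was scored from (-), complete suppression, to (+++), none, at 2 months for cockspar grass and 4 months for the other weeds.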

chigaya = assay: as above; format: in vivo, Imperata cylindrica Beauv.; settings: 4 months
In short: (§7)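 Foliar spray on field weeds at 150 liter per 10 are, compounds at prescribed concentrations plus 0.1% octylphenyl polyoxyethanol. Day 21: killing index 0–5 (5 = death). Reproduction scored (-) to (+++) (- = none): cockspar grass at 2 months, chigaya, azumanezasa and warunasubi at 4 months.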

warunasubi = assay: as above; format: in vivo, Solanum carolinensis L.; settings: 4 months, monosodium salt
In short: as §7

chestnut = assay: Experiment 2 foliar application in Japanese cypress afforested land; format: in vivo, Castanea crenata Sieb et Zucc.; settings: 0.063%; after 30 days; monosodium salt
Procedure: as §2, §3, §4, §5

purple nutsedge = assay: Experiment 1 foliar application to naturally growing weeds; format: in vivo, Cyperus rotundus L.; settings: 4 months, monosodium salt
In short: as §6

azumanezasa = assay: as above; format: in vivo, Pleioblastus Chino Makino; settings: 4 months
In short: as §7

Japanese bush cranberry = assay: Experiment 3 foliar application to naturally growing shrubs; format: in vivo, Viburnum dilatatum Thunb.; settings: after 3 months
In short: as §1

cockspar grass = assay: Experiment 1 foliar application to naturally growing weeds; format: in vivo, Echinochloa Crusgalli P. Beauv.; settings: monosodium salt; for Reproduction-inhibiting effect: 2 months
In short: as §7

hedge bindweed = assay: as above; format: in vivo, Calystegis hederacea Wall.; settings: 4 months, monosodium salt
In short: as §6

kumaichigo = assay: Experiment 2 foliar application in Japanese cypress afforested land; format: in vivo, Rubus crataegifolius Bunge; settings: 0.063%; after 30 days; monosodium salt
In short: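 Field foliar spray on shrubs in Japanese cypress afforested land at 150 liter per 10 are, with compounds at prescribed concentrations. Killing index scored from 0 (no effect) to 5 (death) at 30 days and 3 months. Plant heights ranged from about 50 to 100 cm.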

yabugarashi = assay: Experiment 1 foliar application to naturally growing weeds; format: in vivo, Cayratia japonica Houtt.; settings: 4 months, monosodium salt
In short: as §6

kiichigo = assay: Experiment 3 foliar application to naturally growing shrubs; format: in vivo, Rubus palmatsu Thunb. forma coptophyllus Makino; settings: after 3 months
In short: as §1

lace shrub = assay: as above; format: in vivo, Stephanandra incisa Zabel; settings: after 3 months
In short: as §1

CP(=O)(O)CCC(N)C(=O)O (racemic) [DL-2-Amino-4-methylphosphinobutanoic acid monosodium salt]
Reproduction-inhibiting (torch azalea; 0.05%, monosodium salt): +++ | Reproduction-inhibiting (torch azalea; 0.1%, monosodium salt): ++ | Reproduction-inhibiting (torch azalea; 0.2%): - | Reproduction-inhibiting (oak; 0.05%, monosodium salt): +++ | Reproduction-inhibiting (oak; 0.1%, monosodium salt): ++ | Reproduction-inhibiting (oak; 0.2%): - | Reproduction-inhibiting effect (water hyacinth; 0.1%): ++ | Reproduction-inhibiting effect (water hyacinth; 0.2%): ± | Reproduction-inhibiting (yamazakura; 0.05%, monosodium salt): +++ | Reproduction-inhibiting (yamazakura; 0.1%, monosodium salt): ++ | Reproduction-inhibiting (yamazakura; 0.2%): - | Killing index (eulalia): 2.5 | Reproduction-inhibiting effect (manna grass; 0.05%): +++ | Reproduction-inhibiting effect (manna grass; 0.1%): ++ | Reproduction-inhibiting effect (manna grass; 0.2%): ± | Killing index of Upperground parts (manna grass; 0.2%, 21 days): 4.5 | Reproduction-inhibiting (Japanese prickly ash; 0.05%, monosodium salt): +++ | Reproduction-inhibiting (Japanese prickly ash; 0.1%, monosodium salt): ++ | Reproduction-inhibiting (Japanese prickly ash; 0.2%): - | Reproduction-inhibiting effect (white clover; 0.05%): +++ | Reproduction-inhibiting effect (white clover; 0.1%): +++ | Reproduction-inhibiting effect (white clover; 0.2%): + | Killing index of Upperground parts (white clover; 0.2%, 21 days): 4.5 | Reproduction-inhibiting effect (chigaya; 0.05%, monosodium salt): ++ | Reproduction-inhibiting effect (chigaya; 0.1%, monosodium salt): ++ | Reproduction-inhibiting effect (chigaya; 0.2%): - | Reproduction-inhibiting effect (warunasubi; 0.05%): +++ | Reproduction-inhibiting effect (warunasubi; 0.1%): +++ | Reproduction-inhibiting effect (warunasubi; 0.2%): + | Killing index (chestnut): 0.5 | Reproduction-inhibiting effect (purple nutsedge; 0.05%): +++ | Reproduction-inhibiting effect (purple nutsedge; 0.1%): +++ | Reproduction-inhibiting effect (purple nutsedge; 0.2%): + | Reproduction-inhibiting effect (azumanezasa; 0.05%, monosodium salt): +++ | Reproduction-inhibiting effect (azumanezasa; 0.1%, monosodium salt): + | Reproduction-inhibiting effect (azumanezasa; 0.2%): - | Reproduction-inhibiting (Japanese bush cranberry; 0.05%): +++ | Reproduction-inhibiting (Japanese bush cranberry; 0.1%): ++ | Reproduction-inhibiting (Japanese bush cranberry; 0.2%, monosodium salt): + + | Reproduction-inhibiting effect (cockspar grass; 0.05%): + ++ | Reproduction-inhibiting effect (cockspar grass; 0.1%): ++ | Reproduction-inhibiting effect (cockspar grass; 0.2%): ± | Killing index of Upperground parts (cockspar grass; 0.2%, 21 days): 4.5 | Reproduction-inhibiting effect (hedge bindweed; 0.05%): +++ | Reproduction-inhibiting effect (hedge bindweed; 0.1%): +++ | Reproduction-inhibiting effect (hedge bindweed; 0.2%): +++ | Killing index (kumaichigo): 1.5 | Reproduction-inhibiting effect (yabugarashi; 0.05%): +++ | Reproduction-inhibiting effect (yabugarashi; 0.1%): +++ | Reproduction-inhibiting effect (yabugarashi; 0.2%): ++ | Reproduction-inhibiting (kiichigo; 0.05%, monosodium salt): +++ | Reproduction-inhibiting (kiichigo; 0.1%, monosodium salt): ++ | Reproduction-inhibiting (kiichigo; 0.2%): - | Reproduction-inhibiting (lace shrub; 0.05%, monosodium salt): +++ | Reproduction-inhibiting (lace shrub; 0.1%, monosodium salt): ++ | Reproduction-inhibiting (lace shrub; 0.2%): -
